Assay [1] deals with mild to moderate AD patients (brain volume: whole brain, hippocampus). Put plainly: Test Example 2: Early Phase II placebo-controlled trial, brain volume change by volumetric MRI. The assay is classed as in vivo, human. An excerpt:
Multicenter Randomized Double-Blind Early Phase II Placebo-Controlled Trial for Assessing Effectiveness and Safety of Compound A in Mild to Moderate AD Patients
Patients were screened in a period from 28 days before treatment assignment to the assignment based on the following selection criteria. Patients matched (373 patients) were randomly divided into the following 2 groups and the trial was started.
Patients who were probable AD and over or 50 years old or older and 90 years old or younger at the time of obtaining consent of screening.
Patients with an MMSE score of 15 to 24 at the time of screening
(§1) Patients with a Modified Hachinski Ischemia Scale score of 4 or less
Patients who have been treated with a donepezil hydrochloride for at least 6 months before the baseline and with a stable dose thereof for 3 months before the baseline.
Patients whose brain MRI or CT results match AD at the time of screening Organization of groups:
(1) Active drug group: 224 mg of a test compound (160 mg in terms of Compound A) was orally administered once a day for 52 weeks (176 patients)
(2) Placebo group: placebo was orally administered once a day for 52 weeks (178 patients) Method of assessment:
(§2) Brain volume of subjects was measured by vMRI scan at the screening and after 52 weeks, and the volume change of the whole brain and the hippocampus of the subjects were quantified to assess brain atrophy based on the change from the screening.
The mean amount of volume change of the whole brain and the hippocampus after 52 weeks from the baseline, standard deviation and the difference from the placebo group were calculated.

For assay [2], the system named is mild to moderate AD patients (brain volume: whole brain, hippocampus, 101 areas). Description: Test Example 1: Phase II placebo-controlled trial, brain volume change by volumetric MRI. The class given is in vivo, human. The note with it: for Change in brain volume, Hippocampus, Least square means / Change in brain volume, Whole brain, Least square means / Change in brain volume, Hippocampus, Difference from placebo group / Change in brain volume, Whole brain, Difference from placebo group: vMRI at week 52 from baseline.
Excerpt: Multicenter Randomized Double-Blind Phase II Placebo-Controlled Trial for Assessing Effectiveness and Safety of Compound A in Mild to Moderate AD Patients Subject (selection criteria): Patients were screened in a period from 42 days before treatment assignment to the assignment based on the following selection criteria.
Patients who were probable AD and are 55 years old or older and 85 years old or younger at the time of obtaining consent of screening.
Patients with an MMSE score of 12 to 22 at the time of screening
as §1
Patients who have been treated with a donepezil hydrochloride or rivastigmine transdermal system for at least 4 months before the baseline and with a stable dose thereof for 3 months before the baseline.
In the case of patients who have received memantine in addition to being treated with a donepezil hydrochloride or rivastigmine transdermal system, patients who have been treated with memantine for at least 4 months before the baseline and with a stable dose thereof for 3 months before the baseline.
Patients whose brain MRI or CT results match AD at the time of screening
Organization of groups: Patients matched (484 patients) were randomly divided into the following 3 groups and the trial was started.
(1) High dose group: 224 mg of a test compound (160 mg in terms of Compound A) was orally administered once a day for 4 weeks and then 448 mg of a test compound (320 mg in terms of Compound A) was orally administered once a day for 48 weeks (158 patients)
(2) Low dose group: 224 mg of a test compound (160 mg in terms of Compound A) was orally administered once a day for 52 weeks (166 patients)
(3) Placebo group: placebo was orally administered once a day for 52 weeks (158 patients)
as §2
Furthermore, volume change of the whole brain and 101 areas (obtained by dividing the areas existing in both the left brain and the right brain of the Brodmann areas (1 to 52) into 101 areas) in each subject was quantified to assess brain atrophy based on the change from the screening.
Changes in the volume of the whole brain and the hippocampus after 52 weeks from the baseline were compared between the high dose group and the placebo group, and between the low dose group and the placebo group based on Mixed-effect Models. For models, the treatment groups were included as a fixed effect, age, baseline of the respective brain volumes (the whole brain or the hippocampus), baseline of MMSE and ApoE4 genotype (positive/negative) were included as covariates, and trial sites were included as a random effect.
Furthermore, changes in the respective volumes of the whole brain and the 101 areas after 52 weeks from the baseline were compared between the high dose group and the placebo group, and between the low dose group and the placebo group.

The mark [3] stands for this setting: Compound A group vs placebo group, week 52 from baseline.
Setting [4] is: Low dose (active drug) group, 160 mg in terms of Compound A oral once a day, 52 weeks, vMRI at week 52 from baseline.
The mark [5] stands for this setting: Low dose (active drug) group, vMRI at week 52 from baseline.
Setting [6] is: High dose group (160 mg for 4 weeks then 320 mg in terms of Compound A, oral once a day, 48 weeks).
[7] abbreviates: Low dose group (160 mg in terms of Compound A, oral once a day, 52 weeks).

On to `OC1CN(CCCOCCc2ccc3sccc3c2)C1` [Compound A, 1-(3-(2-(1-benzothiophen-5-yl)ethoxy)propyl)azetidin-3-ol], for which the “Change in the volume of the whole brain and the hippocampus versus placebo group (in words)” value in assay [1] (setting [3]) and in assay [2] (setting [3]) was “volume reduction tended to be smaller” each time. Further, the “Change in brain volume, Hippocampus, Mean change” value in assay [1] (setting [4]) was -0.21 mL. Moreover, the “Change in brain volume, Whole brain, Mean change” value in assay [1] (setting [4]) is -3.83 mL. Moreover, the “Change in brain volume, Hippocampus, Difference from placebo group” value is 0.09 mL in assay [1] (setting [5]), 0.08 mL in assay [2] (High dose group) and 0.12 mL in assay [2] (Low dose group). The figures for the “Change in brain volume, Whole brain, Difference from placebo group” value in assay [1] (setting [5]), in assay [2] (High dose group) and in assay [2] (Low dose group) were 3.41 mL, 3.94 mL and 2.63 mL, respectively. Further, the “Volume reduction of the whole brain and the hippocampus versus placebo group (in words)” value in assay [2] (Compound A high dose group, analysis of whole brain and 101 areas) is on record as “same tendency as in the low dose group was observed”; in assay [2] (Compound A low dose group, analysis of whole brain and 101 areas (Nos. 6 and 14 in Table 2)), “tended to be suppressed”. Further, the “Change in brain volume, Hippocampus, Least square means” value in assay [2] (setting [6]) is -0.31 mL; in assay [2] (setting [7]), -0.27 mL. In addition, the entries for the “Change in brain volume, Whole brain, Least square means” value in assay [2] (setting [6]) and in assay [2] (setting [7]) were -20.05 mL and -21.37 mL, respectively. For the same molecule, the “Change in brain volume, Mean value, Right-Cerebellum-White-Matter” value in assay [2] (Low dose group, week 52 from baseline, whole brain and 101 areas analysis) is −0.89.

(Values after patent US11951092B2, “Agent for preventing or treating brain atrophy” (FUJIFILM Toyama Chemical Co., Ltd., priority 2017, dated 2024).)
